Measurements published in patent US10799456B2, “Multiple drug lipid nanoparticle composition and related methods for extended drug levels in blood and lymph tissue” (priority 2015, dated 2020).

Tests used:
[1] = % Drug association to particles by assembly method; format: physicochemical
In short: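 Drugs and excipients (e.g., 9:1 DSPC:PEG-DSPE) dissolved in single-phase CHCl3:alcohol:water (65:35:4), dried under reduced pressure, heated above lipid phase transition (e.g., 50° C.). Hydrated with equilibrated buffered saline at that temperature for 3 hr, then size-reduced by shearing or pressurized filtration in liquid phase.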

[2] = Sucrose gradient test of drug association; format: physicochemical; conditions: 5-20% sucrose gradient, 200,000 g, 4 hr, LPV/RTV/TFV LNPs, single miscible solvent method
Protocol: The sucrose gradient test to determine this characteristic is described in Example 5. Briefly, the sucrose gradient test comprises subjecting the multi-drug lipid nanoparticle to a continuous 5%-20% sucrose gradient and applying a centrifugal force of 200,000 g for 4 hours. The unassociated small molecules separate and float to the less dense fractions, whereas the associated small molecule agents sediment with the stable lipid nanoparticles in the denser gradients. The relative amounts of the unassociated and associated small molecule reagents can be quantified and, thus, compared.
The sucrose gradient test centrifugation test separates any unbound drugs from multi-drug lipid nanoparticles by sedimentation of lipid-drug particles through a sucrose gradient with increasing density to strip off unbound drugs. Under these conditions, all the free drugs in solution remained at (or floated to) the top of gradient where the sucrose density is low. Specifically, using a continuous gradient of 5-20% (with 65% cushion) sucrose, the lipid-drug particle mixture was subjected to centrifugal force at 200,000 g for 4 hr. Through this process, we were able to separate bound and unbound drug fractions. […] It is noted that the observed percentage of multi drug lipid nanoparticle association for the other two drugs (LPV and RTV) are consistent with data in Table 11.

[3] = Tables 18 and 19; cited from earlier work
[4] = Drug incorporation efficiency into lipid-drug nanoparticles (dialysis); format: physicochemical; conditions: LNPs with ATV + RTV + TFV (2:1:3); for Incorporation efficiency (%): laboratory 0.2 mL scale; for Incorporation efficiency (%) / Drug incorporation (% total): preclinical 45 mL scale
Protocol: J Acquir Immune Defic Syndr. […] Journal of pharmaceutical sciences. […] The AAPS journal. […] Residual solvent was removed overnight by vacuum desiccation. The dried lipid-drug film was then rehydrated with 0.9% NaCl containing 20 mM sodium bicarbonate (pH 7.4). The lipid-drug samples were allowed to hydrate at 60° C. for 2 h. Then samples were sonicated (laboratory scale) or homogenized (preclinical scale) to achieve a homogenous suspension.
The incorporation efficiency was calculated as the ratio of the amount of incorporated drug over the total amount of drug loaded multiplied by 100%.

[5] = Intracellular drug concentration in peripheral blood mononuclear cells (PBMCs); format: in vivo, Macaca nemestrina
Protocol: Four macaques were divided into two treatment groups (two animals per group). […] Data were normalized to the anti-HIV LNP dose for comparative analysis.
Plasma was removed, PBMCs were isolated by the density gradient method, and cells were aliquoted into pellets of approximately 2 million PBMCs each. An inguinal lymph node was surgically excised 24 h after drug administration (n=2 per treatment), LNMCs were isolated by passage through a 100-lm nylon cell strainer (Corning, Tewksbury, Mass.), and cells were aliquoted into pellets of approximately 1-2 million LNMCs each. All samples were stored at −80° C. prior to drug analysis.
Plasma concentrations of all three drugs were analyzed simultaneously by liquid chromatography-tandem mass spectrometry using a recently published method. […] PBMC and LNMC pellets were lysed using 200 μl water/methanol (1:1 v/v), sonicated for 10 min, and then extracted and analyzed using the same method as cited above. Intracellular concentrations were converted to ng/ml with the assumption that each cell has a volume of 4×10^−9 ml.

[6] = cited from earlier work
[7] = reported values; cited from earlier work
[8] = literature, cited from earlier work
[9] = Plasma drug exposure of three multi-drug lipid formulations vs free drug in primates; conditions: for Lipid/Free Ratio: total AUC

## CC(C)c1nc(CN(C)C(=O)N[C@H](C(=O)N[C@@H](Cc2ccccc2)C[C@H](O)[C@H](Cc2ccccc2)NC(=O)OCc2cncs2)C(C)C)cs1 [Ritonavir (RTV), Ritonavir]
[1]
  % Drug Association to Particles, LNPs from mixture of dual solvent method: 80-100%
  % Drug Association to Particles, LNPs from single, miscible solvent method: 90-100%
[2]
  % association to lipid-drug particles (bound fraction): 76%
[3]
  LogP: 6

## C[C@H](Cn1cnc2c(N)ncnc21)OCP(=O)(O)O [Tenofovir (TFV), [(2R)-1-(6-aminopurin-9-yl)propan-2-yl]oxymethylphosphonic acid]
[4]
  Incorporation efficiency (%): 2.4 ± 0.1%
  Incorporation efficiency (%) / Drug incorporation (% total): 6.1 ± 0.8%
[4]; listed as TFV
  Incorporation efficiency (%): about 2.4%
[4]; listed as tenofovir
  Incorporation efficiency (%) / Drug incorporation (% total): 6.1±0.8%
[5]; 0 h
  LNP/free ratio, mononuclear cells in blood: 1.0
  Lipid/Free Ratio, PBMCs: 1
[5]; 0.5 h
  LNP/free ratio, mononuclear cells in blood: 0.3
  Lipid/Free Ratio, PBMCs: 0.3
[5]; 1 h
  LNP/free ratio, mononuclear cells in blood: 0.4
  Lipid/Free Ratio, PBMCs: 0.4
[5]; 3 h
  LNP/free ratio, mononuclear cells in blood: 0.5
[5]; 5 h
  LNP/free ratio, mononuclear cells in blood: 4.6
  Lipid/Free Ratio, PBMCs: 4.6
[5]; 8 h
  LNP/free ratio, mononuclear cells in blood: 59.0
[5]; 8 h, listed as PMPA
  LNP/free ratio, mononuclear cells in blood: over 50
[5]; 8 h, listed as TFV
  LNP/free ratio, mononuclear cells in blood: over 50
[5]; 24 h
  LNP/free ratio, mononuclear cells in blood: 70.0
  Lipid/Free Ratio, PBMCs: 70
[5]; 48 h
  LNP/free ratio, mononuclear cells in blood: >227.0
[5]; 168 h
  LNP/free ratio, mononuclear cells in blood: >25.0
  Lipid/Free Ratio, PBMCs: >25.0
[1]
  % Drug Association to Particles, LNPs from mixture of dual solvent method: 7-30%
  % Drug Association to Particles, LNPs from single, miscible solvent method: 78-85%
[1]; typical liposomes
  % association of hydrophilic drug in typical liposome: 3-5%
[2]
  % association to lipid-drug particles (bound fraction): around 75.5%
[2]; listed as Tenofovir (TFV or PMPA)
  % association to lipid-drug particles (bound fraction): 75.5%
[6]
  Water solubility @ 25° C.: 13.3 mg/mL
[7]
  % Drug Association to Particles, Liposomes: ~5%
[8]; double emulsion nano-precipitate method
  final % drug association: less than 3%
[8]; phosphatidylcholine with stearylamine, particles up to ˜2000 nm
  association of hydrophilic drug: 70%
[9]; ATZ/RTV/TFV combination
  Lipid/Free Ratio: 25.2
[9]; LPV/RTV/TFV combination
  Lipid/Free Ratio: 13.1
[9]; across drug combinations
  fold increase in plasma exposure, lipid-stabilized vs free drug: 10- to 20 fold
